Reference: patent publication US20230023092A1, “TREATMENT OF DEPRESSION AND OTHER VARIOUS DISORDERS WITH PSILOCYBIN” (COMPASS […], priority 2019, published 2023)

System: healthy subjects
Test: Pictorial Empathy Test (PET)
Assay type: in vivo, human
Experimental: In some embodiments, the Pictorial Empathy Test (PET) is utilized to evaluate the effect of psilocybin on affective empathy.
The Pictorial Empathy Test (PET), Reading the Mind in the Eyes Test (RMET), Scale of Social Responsibility (SSR), Social Value Orientation (SVO), and Toronto Empathy Questionnaire (TEQ) were performed. Table 20 summarizes the results of the mixed model for repeated measures (MMRM) analysis for each of the aforementioned social cognition panel scales measured on Day 7 and Day 84 after study drug administration.

CN(C)CCc1c[nH]c2cccc(OP(=O)(O)O)c12 [Psilocybin, psilocybin]
PET change from baseline (LS mean) (Day 7, psilocybin 10 mg): −0.3
PET change from baseline, LS mean difference (Day 7, psilocybin 10 mg - placebo): −0.1
PET change from baseline (LS mean) (Day 7, psilocybin 25 mg): 0.0
PET change from baseline, LS mean difference (Day 7, psilocybin 25 mg - 10 mg): 0.3
PET change from baseline, LS mean difference (Day 7, psilocybin 25 mg - placebo): 0.2
PET change from baseline (LS mean) (Day 84, psilocybin 10 mg): −0.3
PET change from baseline, LS mean difference (Day 84, psilocybin 10 mg - placebo): −0.1
PET change from baseline (LS mean) (Day 84, psilocybin 25 mg): −0.1
PET change from baseline, LS mean difference (Day 84, psilocybin 25 mg - 10 mg): 0.3
PET change from baseline, LS mean difference (Day 84, psilocybin 25 mg - placebo): 0.1
